Data taken from article PMC8847695 (Frontiers in Chemistry, 2022).

What was measured:
Format in all cases: binding
Conditions in all cases: 1 = hit, 0 = no hit
CAMK1G (1-320) = target: T1, CAMK1G (1-320) (Homo sapiens, UniProt Q96NX5); assay: STD-NMR fragment screening, CAMK1G
T1 construct: made in house; host or cells: E. coli BL21 (DE3) pLysS
Method: (§1) All fragments were stored at −20°C as solids in argon flushed glass bottles. For NMR screening, fragments were weighed and dissolved in DMSO-d6 to a stock concentration of 300 mM. Mother plates were prepared with a 100 mM concentration. From these plates, daughter plates were prepared with the fragments mixed in the plates to a concentration of 50 mM for each fragment. Daughter plates were opened a maximum of eight times. The plates were argon flushed and sealed with a HT121TS (HTA) and Foil Heat Seal (Biozym).
(§2) For long time measurements, like the protein ^1H NMR spectrum, the buffer exchange was performed twice to reduce residual buffer peaks. All experiments were performed on a Bruker Avance III HDX 700 instrument, equipped with a 5 mm Prodigy TCI cryo-probehead. For every protein, a standard ^1H NMR experiment with 1 k scans and water suppression through presaturation was performed. […] The on-resonance frequency, which was determined from the ^1H NMR spectra of the protein, was between 0.5 and 0.6 ppm; 40 ppm was used as the off-resonance frequency. For an interleaved acquisition of the on- and off-resonance, a pseudo-2D scheme was applied. The saturation was done by Gaussian pulses with a length of 50 ms and 60 dB of attenuation, with an interpulse delay of 1 ms leading to an excitation bandwidth of about 42 Hz. The screening was done with 16 scans of on- and off-resonance scans each, with a 3 s saturation time. The samples contained final concentrations of 20 µM protein, 10% (^V/V) DMSO-d6, and 1 mM of each of the two fragments. A ^1H-NMR experiment was performed for each compound to act as a reference spectrum in the STD experiments. All NMR experiments were carried out at 25°C.
(§3) Fifteen of these compounds contain the same halogen twice. No compound bears mixtures of different halogen atoms. Four proteins (AAK1, CAMK1G, IDO1, and DOT1L) were screened against this HEFLib using STD-NMR. A fragment was considered a hit if the peak intensity in the difference spectrum was three times higher than the local background noise. […] Chemical compatibility and peak complementarity were assured for these mixtures. Samples containing more than two fragments were avoided to minimize the possible target competition and to decrease the risk of fragment interactions. […] The ^1H reference NMR spectrum of the mixture is shown in red for comparison. […] As fragment mixtures can lead to competitive effects between their fragments, it is not advised to use the quantification of peak mixtures for hit ranking.

IDO1 (1-435) = target: T2, IDO1 (1-435) (Homo sapiens, UniProt P14902); assay: STD-NMR fragment screening, IDO1
T2 construct: His-tag of pET15b with TEV site (thrombin site replaced) (cleaved yes); made in house; host or cells: E. coli Rosetta 2 (DE3) pLysS
Method: as §1, §2, §3

AAK1 (121-471) = AAK1 (121-471) (Homo sapiens, UniProt Q2M2I8); assay: STD-NMR fragment screening, AAK1
Method: as §1, §2, §3

DOT1L (1-416) = target: T3, DOT1L (1-416) (Homo sapiens, UniProt Q8TEK3); assay: STD-NMR fragment screening, DOT1L
T3 construct: made in house; host or cells: E. coli BL21 (DE3) pLysS
Method: as §1, §2, §3

T2 sequence (P14902 whole entry, the tested form may be a part): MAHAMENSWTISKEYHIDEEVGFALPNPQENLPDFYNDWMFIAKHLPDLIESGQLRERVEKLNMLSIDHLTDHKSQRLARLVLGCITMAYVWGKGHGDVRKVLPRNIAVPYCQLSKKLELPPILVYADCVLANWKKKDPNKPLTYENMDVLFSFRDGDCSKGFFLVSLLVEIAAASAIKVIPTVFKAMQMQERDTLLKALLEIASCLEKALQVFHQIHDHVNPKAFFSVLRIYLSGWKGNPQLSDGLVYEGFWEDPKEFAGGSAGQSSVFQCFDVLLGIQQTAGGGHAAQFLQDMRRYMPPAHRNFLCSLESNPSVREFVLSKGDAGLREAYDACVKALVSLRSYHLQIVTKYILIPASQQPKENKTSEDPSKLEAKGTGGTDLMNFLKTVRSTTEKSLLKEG
T1 sequence (Q96NX5 1-320): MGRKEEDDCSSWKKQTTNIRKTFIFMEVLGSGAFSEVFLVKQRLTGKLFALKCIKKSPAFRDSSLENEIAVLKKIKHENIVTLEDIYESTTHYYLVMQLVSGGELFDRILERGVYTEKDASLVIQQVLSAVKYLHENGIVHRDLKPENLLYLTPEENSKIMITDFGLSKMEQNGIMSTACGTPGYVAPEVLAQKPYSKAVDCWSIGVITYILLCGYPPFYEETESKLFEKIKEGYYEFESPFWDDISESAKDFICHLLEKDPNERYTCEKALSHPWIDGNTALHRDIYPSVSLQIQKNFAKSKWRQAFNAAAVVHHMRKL
T3 sequence (Q8TEK3 1-416): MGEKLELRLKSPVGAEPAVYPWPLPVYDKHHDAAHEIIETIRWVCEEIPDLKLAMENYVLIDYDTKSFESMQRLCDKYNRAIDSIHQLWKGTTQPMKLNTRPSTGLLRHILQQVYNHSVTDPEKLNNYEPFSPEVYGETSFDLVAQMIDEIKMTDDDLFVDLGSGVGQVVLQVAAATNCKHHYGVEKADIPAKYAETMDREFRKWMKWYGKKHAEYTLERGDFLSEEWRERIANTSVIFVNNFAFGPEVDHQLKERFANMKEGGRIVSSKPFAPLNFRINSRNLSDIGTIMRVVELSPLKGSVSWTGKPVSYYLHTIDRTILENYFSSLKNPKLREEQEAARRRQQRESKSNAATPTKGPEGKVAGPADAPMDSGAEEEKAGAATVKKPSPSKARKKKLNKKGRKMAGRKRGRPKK
Chain of AAK1 (121-471) (Q2M2I8 46-315 limits assumed): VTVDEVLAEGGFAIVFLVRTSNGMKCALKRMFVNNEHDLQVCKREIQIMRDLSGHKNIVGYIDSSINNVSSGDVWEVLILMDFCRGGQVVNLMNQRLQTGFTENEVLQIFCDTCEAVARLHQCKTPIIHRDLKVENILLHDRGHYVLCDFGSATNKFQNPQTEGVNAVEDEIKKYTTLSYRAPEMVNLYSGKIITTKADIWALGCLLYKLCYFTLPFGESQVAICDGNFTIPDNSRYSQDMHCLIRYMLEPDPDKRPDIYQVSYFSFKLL

SMILES	CAMK1G (STD-NMR hit flag) (CAMK1G (1-320))	IDO1 (STD-NMR hit flag) (IDO1 (1-435))	AAK1 (STD-NMR hit flag) (AAK1 (121-471))	DOT1L (STD-NMR hit flag) (DOT1L (1-416))
COCn1nc(Br)[nH]c1=O [Fragment B02290404]	0	0	0	0
Brc1cnc(C2OCCO2)s1 [Fragment B02290407]	0	0	1	0
O=C(O)C(=O)Nc1ccc(Cl)cn1 [Fragment B02290408]	0	0	0	0
Cc1n[nH]c(C)c1I [Fragment B02290459]	1	1	1	1
O=c1[nH]cc(Cl)cc1[N+](=O)[O-] [Fragment B02290460]	1	0	0	0
Nc1ncc(Br)s1 [Fragment B02290461]	0	0	0	0
Brc1nnc2n1CCNC2 [Fragment B02290462]	0	0	0	0
O=C(O)c1n[nH]cc1Br [Fragment B02290463]	0	0	0	0
N#Cc1n[nH]cc1Br [Fragment B02290464]	1	1	1	0
Cn1c(Cl)cc(=O)n(C)c1=O [Fragment B02290465]	0	0	1	0
O=C(O)c1ccc(Cl)o1 [Fragment B02290466]	0	0	0	0
O=C1Nc2c(Cl)cccc2C1=O [Fragment B02290467]	0	0	0	0
Clc1cnc2nn[nH]c2c1 [Fragment B02290468]	0	0	0	0
O=C(O)c1cc(Cl)nnc1Cl [Fragment B02290470]	0	0	0	0
Nc1c(Cl)ccc(O)c1Cl [Fragment B02290471]	0	0	1	0
Nc1ncnc(C(=O)O)c1Cl [Fragment B02290472]	0	0	0	0
Fc1cnccc1I [Fragment B02290473]	1	0	1	0

SMILES	CAMK1G (STD-NMR hit flag) (CAMK1G (1-320))	IDO1 (STD-NMR hit flag) (IDO1 (1-435))	AAK1 (STD-NMR hit flag) (AAK1 (121-471))	DOT1L (STD-NMR hit flag) (DOT1L (1-416))
O=c1[nH]c2ccc(Cl)nc2[nH]1 [Fragment B02290474]	0	0	1	0
Nc1ncc(Br)cc1CO [Fragment B02290475]	1	0	1	0
Nc1nc(Cl)nc2[nH]cnc12 [Fragment B02290476]	0	0	0	0
Clc1cscn1 [Fragment B02290477]	0	0	0	0
CC(Cn1cc(Cl)cn1)C(=O)O (stereo not drawn) [Fragment B02290481]	0	0	0	0
Brc1cnc2[nH]nnc2c1 [Fragment B02290482]	0	0	0	0
CN1CCN(C(CN)c2ccccc2Cl)CC1 (stereo not drawn) [Fragment B02290483]	0	0	0	0
Cc1onc(N)c1I [Fragment B02290521]	1	1	1	0
Cc1nn(C)c(Cl)c1S(N)(=O)=O [Fragment B02290522]	0	1	1	0
O=C(O)c1cc(Br)c[nH]c1=O [Fragment B02290523]	0	0	0	0
Cn1c(=O)cc(Cl)[nH]c1=O [Fragment B02290524]	0	0	0	0
Cc1ccc(Cl)c(CN)c1F [Fragment B02290525]	0	0	0	0
O=C(O)c1c(I)ccnc1F [Fragment B02290658]	0	0	0	0
O=C(O)c1nccc(Cl)c1Cl [Fragment B02290659]	0	0	0	0
CN(C)S(=O)(=O)n1nccc1Br [Fragment B02290660]	0	0	1	1
CC(=O)c1c[nH]c2ncnc(Cl)c12 [Fragment B02290661]	1	1	1	0
